US6551772B1, “Model for viral infection and immune response” (AntiCancer, Inc., priority 1996, dated 2003)

Test system: human tonsil histocultures
Format: cell-based
Settings: for donors whose tissue responded by producing antigen-specific antibodies: antigen added to medium for 2 days, responding donors out of donors tested; for dose dependence of specific IgG response: antigen in the range of 10-100 ng/ml; for induction of antibody against the other antigen and effect on total IgG production: challenge by either TT or DT

Substance | donors whose tissue responded by producing antigen-specific antibodies | dose dependence of specific IgG response | induction of antibody against the other antigen and effect on total IgG production | absolute amount of anti-TT IgG in medium (varied from tissue to tissue)
tetanus toxoid | 42 out of 55 | dose-dependent | did not induce the production of antibody against the other antigen nor did it increase total IgG production | hundreds to several thousands
diphtheria toxin [DT] | 17 of 24 | dose-dependent | did not induce the production of antibody against the other antigen nor did it increase total IgG production | –
